# Data taken from ChEMBL document CHEMBL5154722, “Identification of new potent anticancer derivatives through simplifying the core structure and modification on their 14- hydroxyl group from oridonin” (Eur J Med Chem, 2022).
# The source made the active and inactive calls. The calls are words filed in the database; no cut-off is given here.
# How the values were obtained:
# MGC-803 = test: Antiproliferative activity against human MGC-803 cells assessed as reduction in cell viability incubated for 72 hrs by MTT assay; assay type: functional, cell-based; settings: MGC-803, 72 h
# K562 [1] = test: Induction of apoptosis in human K562 cells assessed as early apoptotic cells at 50 nM measured after 48 hrs by Annexin V-FITC/PI staining based flow cytometry method (reference value: 1.62%); assay type: functional
# K562 [2] = test: Induction of cell cycle arrest in human K562 cells assessed as downregulation of cdc2 measured after 48 hrs by Western blot analysis; assay type: functional, cell-based; settings: dose 25-100 nM, DDE = dose-dependent effect
# K562 [3] = test: Induction of apoptosis in human K562 cells assessed as viable cells at 50 nM measured after 48 hrs by Annexin V-FITC/PI staining based flow cytometry method (reference value: 94.41%); assay type: functional; settings: read-out: Activity
# H22 [4] = test: Antitumor activity against mouse H22 cells allografted in ICR mouse assessed as reduction in tumor volume at 20 mg/kg, iv administered once a day for 21 days after 7 days of tumor implantation measured every two days; assay type: functional, organism-based; settings: time 21.0 day
# K562 [5] = test: Inhibition of MAPK signaling pathway in human K562 cells assessed as reduction in Raf level measured after 48 hrs by Western blot analysis; assay type: cell-based; settings: dose 25-100 nM, DDE = dose-dependent effect
# SMMC-7721 = test: Antiproliferative activity against human […] cells assessed as reduction in cell viability incubated for 72 hrs by MTT assay; assay type: functional, cell-based; settings: SMMC-7721, 72 h
# K562 [6] = test: Induction of apoptosis in human K562 cells assessed as reduction in phosphorylated Akt level measured after 48 hrs by Western blot analysis; assay type: functional, cell-based; settings: dose 25-100 nM, DDE = dose-dependent effect
# [7] = Selectivity index, ratio of IC50 for human L02 cells to IC50 for human SMMC-7721 cells; assay type: toxicity; settings: L02 cells and SMMC-7721 cells, read-out: Ratio IC50
# K562 [8] = test: Induction of apoptosis in human K562 cells assessed as viable cells at 100 nM measured after 48 hrs by Annexin V-FITC/PI staining based flow cytometry method (reference value: 94.41%); assay type: functional; settings: read-out: Activity
# H22 [9] = test: Antiproliferative activity against mouse H22 cells assessed as reduction in cell viability incubated for 72 hrs by MTT assay; assay type: functional, cell-based; settings: H22, 72 h
# K562 [10] = test: Induction of cell cycle arrest in human K562 cells assessed as accumulation of cells at G2 phase at 50 nM measured after 48 hrs by propidium iodide staining-based flow cytometric analysis (reference value: 15.30%); assay type: functional
# K562 [11] = test: Induction of cell cycle arrest in human K562 cells assessed as accumulation of cells at G2 phase at 100 nM measured after 48 hrs by propidium iodide staining-based flow cytometric analysis (reference value: 15.30%); assay type: functional
# [12] = Antiproliferative activity against human U-87 MG cells assessed as reduction in cell viability incubated for 72 hrs by MTT assay; assay type: functional, cell-based, U-87MG ATCC
# K562 [13] = test: Induction of apoptosis in human K562 cells assessed as necrotic cells at 50 nM measured after 48 hrs by Annexin V-FITC/PI staining based flow cytometry method (reference value: 0.44%); assay type: functional
# MDA-MB-231 = test: Antiproliferative activity against human MDA-MB-231 cells assessed as reduction in cell viability incubated for 72 hrs by MTT assay; assay type: functional, cell-based; settings: MDA-MB-231, 72 h
# K562 [14] = test: Induction of apoptosis in human K562 cells assessed as reduction in phosphorylated mTOR level measured after 48 hrs by Western blot analysis; assay type: functional, cell-based; settings: dose 25-100 nM, DDE = dose-dependent effect
# HeLa = test: Antiproliferative activity against human HeLa cells assessed as reduction in cell viability incubated for 72 hrs by MTT assay; assay type: functional, cell-based
# K562 [15] = test: Inhibition of MAPK signaling pathway in human K562 cells assessed as reduction in MEK level measured after 48 hrs by Western blot analysis; assay type: cell-based; settings: dose 25-100 nM, DDE = dose-dependent effect
# [16] = Cytotoxicity against human L02 cells assessed as reduction in cell viability incubated for 72 hrs by MTT assay; assay type: toxicity, cell-based
# K562 [17] = test: Induction of apoptosis in human K562 cells assessed as intracellular ROS generation measured after 48 hrs by DCFH-DA staining based flow cytometry method; assay type: functional, cell-based; settings: dose 25-100 nM, DDE = dose-dependent effect
# [18] = Toxicity in ICR mouse allografted with mouse H22 cells assessed as effect on kidney morphology at 10 to 20 mg/kg, iv administered once a day for 21 days after 7 days of tumor implantation by H and E staining method; assay type: organism-based; settings: in vivo, 504 h, dose 10-20 mg/kg, time 21 day
# SW480 = test: Antiproliferative activity against human SW480 cells assessed as reduction in cell viability incubated for 72 hrs by MTT assay; assay type: functional, cell-based; settings: SW480, 72 h
# H22 [19] = test: Antitumor activity against mouse H22 cells allografted in ICR mouse assessed as reduction in tumor weight at 20 mg/kg, iv administered once a day for 21 days after 7 days of tumor implantation; assay type: functional; set-up: scale not given: the % may be the effect or the level left; settings: time 21 day
# K562 [20] = test: Induction of apoptosis in human K562 cells assessed as increase in caspase-3 level measured after 48 hrs by Western blot analysis; assay type: functional, cell-based; settings: dose 25-100 nM, DDE = dose-dependent effect
# K562 [21] = test: Induction of apoptosis in human K562 cells assessed as necrotic cells at 100 nM measured after 48 hrs by Annexin V-FITC/PI staining based flow cytometry method (reference value: 0.44%); assay type: functional
# H22 [22] = test: Antitumor activity against mouse H22 cells allografted in ICR mouse assessed as reduction in tumor weight at 10 mg/kg, iv administered once a day for 21 days after 7 days of tumor implantation; assay type: functional; set-up: scale not given: the % may be the effect or the level left; settings: time 21 day
# K562 [23] = test: Induction of cell cycle arrest in human K562 cells assessed as accumulation of cells at G1 phase at 50 nM measured after 48 hrs by propidium iodide staining-based flow cytometric analysis (reference value: 47.40%); assay type: functional
# [24] = Toxicity in ICR mouse allografted with mouse H22 cells assessed as effect on liver morphology at 10 to 20 mg/kg, iv administered once a day for 21 days after 7 days of tumor implantation by H and E staining method; assay type: organism-based; settings: in vivo, 504 h, dose 10-20 mg/kg, time 21 day
# K562 [25] = test: Induction of apoptosis in human K562 cells assessed as viable cells at 25 nM measured after 48 hrs by Annexin V-FITC/PI staining based flow cytometry method (reference value: 94.41%); assay type: functional; settings: read-out: Activity
# K562 [26] = test: Disruption of mitochondria in human K562 cells assessed as reduction of mitochondrial membrane potential measured after 48 hrs by JC-1 probe based fluorescence based assay; assay type: functional, cell-based; settings: dose 25-100 nM, DDE = dose-dependent effect
# K562 [27] = test: Induction of cell cycle arrest in human K562 cells assessed as accumulation of cells at G1 phase at 100 nM measured after 48 hrs by propidium iodide staining-based flow cytometric analysis (reference value: 47.40%); assay type: functional
# K562 [28] = test: Induction of cell cycle arrest in human K562 cells assessed as accumulation of cells at G2 phase at 25 nM measured after 48 hrs by propidium iodide staining-based flow cytometric analysis (reference value: 15.30%); assay type: functional
# K562 [29] = test: Induction of cell cycle arrest in human K562 cells assessed as downregulation of cyclin B1 measured after 48 hrs by Western blot analysis; assay type: functional, cell-based; settings: dose 25-100 nM, DDE = dose-dependent effect
# MCF7 = test: Antiproliferative activity against human MCF7 cells assessed as reduction in cell viability incubated for 72 hrs by MTT assay; assay type: functional, cell-based; settings: MCF7, 72 h
# K562 [30] = test: Induction of apoptosis in human K562 cells assessed as late apoptotic cells at 50 nM measured after 48 hrs by Annexin V-FITC/PI staining based flow cytometry method (reference value: 3.53%); assay type: functional
compound,measurement,setting,value
C=C1C(=O)[C@]23[C@H](OC(=O)/C=C/c4ccncc4)[C@H]1CC[C@H]2[C@]12CCCC(C)(C)[C@H]1[C@H](O)[C@@]3(O)OC2,IC50,MGC-803,610 nM
same,Activity,K562 [1],13.97%
same,Activity,K562 [2],Dde
same,viability at 0.05 µM,K562 [3],66.7%
same,Activity,H22 [4],Active
same,Activity,K562 [5],Dde
same,IC50,SMMC-7721,450 nM
same,Activity,K562 [6],Dde
same,selectivity ratio,[7],7.12
same,viability at 0.1 µM,K562 [8],33%
same,IC50,H22 [9],230 nM
same,Activity,K562 [10],26.72%
same,Activity,K562 [11],30.83%
same,IC50,[12],840 nM
same,Activity,K562 [13],0.07%
same,IC50,MDA-MB-231,420 nM
same,Activity,K562 [14],Dde
same,IC50,HeLa,1130 nM
same,Activity,K562 [15],Dde
same,IC50 at 72 h,[16],3.18 µM
same,Activity,K562 [17],Dde
same,Activity,[18],Non-Toxic
same,IC50,SW480,1030 nM
same,Activity,H22 [19],78.92%
same,Activity,K562 [20],Dde
same,Activity,K562 [21],3.25%
same,Activity,H22 [22],74.08%
same,Activity,K562 [23],36.76%
same,Activity,[24],Non-Toxic
same,viability at 0.025 µM,K562 [25],82.5%
same,Activity,K562 [26],Dde
same,Activity,K562 [27],33.85%
same,Activity,K562 [28],22.14%
same,Activity,K562 [29],Dde
same,IC50,MCF7,700 nM
same,Activity,K562 [30],19.26%
